Laboratory results reported in patent publication US10709788B2, “Chitosan magnetic particle drug carrier, drug structure, and method of making” (GENE'E TECH CO., LTD., priority 2018, dated 2020).
Converted amounts (≈) assume the structure as drawn. Read-outs that look alike come from different tables or passages of the source.

How the values were obtained:
[1] = test system: H. pylori; test: minimum inhibitory concentrations (MIC) for seven strains of H. pylori; assay type: cell-based; details: Helicobacter pylori, read-out: minimum inhibitory concentration (MIC)
[2] = test system: H. pylori; test: Test of inhibition of H. pylori by drug structure (OD 450 nm, bacterial inhibition rate); assay type: cell-based; details: seven strains; added at minimum inhibitory concentration; 37° C., anaerobic, 48 hours
Method: First, bacterial fluids of seven different strains of H. pylori are provided. […] The bacterial fluids of the seven different strains of H. pylori are placed in four 15 ml microcentrifuge tubes, respectively. Each microcentrifuge tube contains 5 ml of H. pylori bacterial fluid. The four microcentrifuge tubes are defined as experimental group 1, experimental group 2, experimental group 3 and control group, respectively. Then, amoxicillin of the minimum inhibitory concentration is added to experimental group 1 of each strain of H. pylori, sample 3 (i.e., drug carrier) of the minimum inhibitory concentration is added to experimental group 2 of each strain of H. pylori, sample C (i.e., drug structure) of amoxicillin of the minimum inhibitory concentration is added to experimental group 3 of each strain of H. pylori, and nothing is added to the control group. Afterward, experimental groups 1-3 and control group of each strain of H. pylori are placed in an incubator to be cultured therein at 37° C., in an anaerobic environment, and for 48 hours. At the end of the 48-hour culturing process, bacterial fluids are extracted from the experimental groups 1-3 and control group of the strains of H. pylori, respectively. OD values of the bacterial fluid of the experimental groups and the bacterial fluid of the control group are measured with a spectrophotometer at a wavelength of 450 nm. […]

- MIC ([1]; H. pylori strain NO. 125-54): 0.5 µg/mL (≈ 1.37 µM)
- MIC ([1]; H. pylori strain NO. 125-56): 0.25 µg/mL (≈ 0.684 µM)
- MIC ([1]; H. pylori strain NO. 125-57): 0.25 µg/mL (≈ 0.684 µM)
- MIC ([1]; H. pylori strain NO. 126-6): 0.016 µg/mL (≈ 0.0438 µM)
- MIC ([1]; H. pylori strain NO. 127-4): 0.0625 µg/mL (≈ 0.171 µM)
- MIC ([1]; H. pylori strain NO. 127-9): 0.0625 µg/mL (≈ 0.171 µM)
- MIC ([1]; H. pylori strain NO. 127-10): 0.125 µg/mL (≈ 0.342 µM)
Compound: CC1(C)S[C@@H]2[C@H](NC(=O)[C@H](N)c3ccc(O)cc3)C(=O)N2[C@H]1C(=O)O [amoxicillin]
- inhibitory effect on H. pylori [2]: different degrees of inhibition efficacy
